Laboratory results reported in PubChem BioAssay (NCI).
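Assay format: 96-well plates, 48-hour exposure. TGI is the concentration that stops growth completely.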

Assays:
Test in all cases: inhibition of tumour cell growth, NCI panel, 48 h
[1] = test system: DLD-1 colon
[2] = test system: DMS 114 small cell lung
[3] = test system: DMS 273 small cell lung
[4] = test system: HOP-18 NSCLC
[5] = test system: KM20L2 colon
[6] = test system: LXFL 529 NSCLC
[7] = test system: M19-MEL melanoma
[8] = test system: RXF-631 renal
[9] = test system: SNB-78 CNS
[10] = test system: XF 498 CNS
[11] = test system: BT-549 breast
[12] = test system: DU-145 prostate
[13] = test system: T-47D breast

| Compound | TGI [1] | TGI [2] | TGI [3] | TGI [4] | TGI [5] | TGI [6] | TGI [7] | TGI [8] | TGI [9] | TGI [10] | TGI [11] | TGI [12] | TGI [13] |
| --- | --- | --- | --- | --- | --- | --- | --- | --- | --- | --- | --- | --- | --- |
| C/C(=N/O)c1sc(-c2nc(C)c(/C(C)=N\O)s2)nc1C | > 100 µM | > 100 µM | > 100 µM | > 100 µM | > 100 µM | > 100 µM | > 100 µM | > 100 µM | > 100 µM | > 100 µM |  |  |  |
| CCCCCCCCCCCCC(Br)C(C)=O (configuration not stated) | > 100 µM | > 100 µM | > 100 µM | > 100 µM | > 100 µM | > 100 µM | > 100 µM | > 100 µM | > 100 µM | > 100 µM |  |  |  |
| O=C(CC1(O)C(=O)Nc2c(Cl)cc(Cl)cc21)c1ccc(F)cc1 (configuration not stated) | > 100 µM | 58.9 µM | > 100 µM | > 100 µM | > 100 µM | > 100 µM | 34 µM | > 100 µM | > 100 µM | 39.9 µM |  |  |  |
| COc1ccc2c(c1)[n+]([O-])c(/C(C)=N/NC(=O)c1ccccc1O)c(C)[n+]2[O-] | > 100 µM | > 100 µM |  | > 100 µM | > 100 µM | > 100 µM | > 100 µM | > 100 µM | > 100 µM | > 100 µM |  |  |  |
| NC(N)=NS(=O)(=O)c1ccc(NC(=O)c2cccc3c(N)c4ccccc4nc23)cc1 | > 100 µM | > 100 µM | > 100 µM |  | > 100 µM | > 100 µM | > 100 µM | > 100 µM | > 100 µM | > 100 µM |  |  |  |
| O=C(O)CCN(CCCN(CCC(=O)O)CCC(=O)O)CCC(=O)O | > 100 µM | > 100 µM | > 100 µM | > 100 µM | > 100 µM | > 100 µM | > 100 µM | > 100 µM |  | > 100 µM |  |  |  |
| CC(C)c1ccc(/C=C/c2cc(C(=O)NNC(=O)NC3CCCCC3)nc(=S)[nH]2)cc1 | > 100 µM | > 100 µM | > 100 µM | > 100 µM | > 100 µM | > 100 µM | > 100 µM | > 100 µM | > 100 µM | > 100 µM |  |  |  |
| O=C(O)c1ccc([C@@H]2C(=O)N(O)[C@@H]3C=CC[C@@H]32)cc1 | > 100 µM | > 100 µM | > 100 µM |  |  | > 100 µM | > 100 µM | > 100 µM | > 100 µM | > 100 µM |  |  |  |
| CC(=O)NC1COC(COC(=O)CCCCCCCCCCNC(=O)c2ccc([N+](=O)[O-])c3c(=O)c4ccccc4[nH]c23)C(O)C1OC(C)C(=O)NC(C(=O)NC(CCC(N)=O)C(=O)OCc1ccccc1)C(C)C (configuration not stated) | 10.1 µM | 30.4 µM | 27.3 µM | 43.9 µM | 33.5 µM | > 60.6 µM | 10.7 µM | > 100 µM | > 22.8 µM | 34.8 µM | > 83.1 µM | 12.3 µM | 13 µM |
| Cc1ccc(-c2nnc3s/c(=C\c4ccc(N(C)C)cc4)c(=O)n23)cc1 | > 100 µM | > 100 µM | > 100 µM | > 100 µM | > 100 µM | > 100 µM | > 100 µM | > 100 µM | > 100 µM | > 100 µM |  |  |  |
| COc1ccccc1NC(=O)CC(=O)N1N=C(c2ccccc2)C(N=Nc2ccc(Cl)cc2)C1=O (configuration not stated) | > 100 µM | > 100 µM | > 100 µM |  | > 100 µM | > 100 µM | > 100 µM | > 100 µM | > 100 µM | > 100 µM |  |  |  |
